According to patent US12043599B2, “Herbicidal compounds” (SYNGENTA PARTICIPATIONS AG, priority 2018, dated 2024):

Key:
Type in all cases: in vivo
Settings in all cases: 250 g/h, evaluated after 13 days
Setaria faberi (SETFA) [1] = experiment: Post-emergence herbicidal glasshouse test, percentage damage
How it was run: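 Percentage damage was scored 13 days after treatment on a five-point scale (1=0-19% to 5=80-100%). Treatments were post-emergence sprays on 8-day-old wheat, barley and SETFA plants in a glasshouse (24/16 °C day/night, 14 h light, 65% humidity), using acetone/water 50:50 with 0.5% Tween 20 at the stated rates. Wheat additionally received cloquintocet-mexyl safener at 50 g/ha.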

[2] = system: Alopecurus myosuroides (ALOMY); experiment: Pre-emergence herbicidal glasshouse test, percentage damage
How it was run: (§1)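 Herbicidal effect was scored 13 days after a 250 g/h spray, using bands of 0-19% (1) through 80-100% (5). Sowing preceded spraying by 1 day for pre-emergence and 8 days for post-emergence. The glasshouse ran at 24/16 °C with 14 h light.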

Setaria faberi (SETFA) [3] = experiment: as above
How it was run: as §1

Avena fatua (AVEFA) [4] = experiment: as above
How it was run: as §1

[5] = system: Echinochloa crus-galli (ECHCG); experiment: as above
How it was run: as §1

Lolium perenne (LOLPE) [6] = experiment: as above
How it was run: as §1

[7] = system: Alopecurus myosuroides (ALOMY); experiment: Post-emergence herbicidal glasshouse test, percentage damage
How it was run: as §1

Avena fatua (AVEFA) [8] = experiment: as above
How it was run: as §1

[9] = system: Echinochloa crus-galli (ECHCG); experiment: as above
How it was run: as §1

Lolium perenne (LOLPE) [10] = experiment: as above
How it was run: as §1

CC#Cc1cc(C)c(C2C(=O)CC3(CCN(C(=O)c4ccccc4)CC3)CC2=O)c(C)c1 [Compound A7]
5 (5=80-100%): SETFA POST percentage damage (five point scale) (Setaria faberi (SETFA) [1]) | ALOMY PRE percentage damage (five point scale) [2] | SETFA PRE percentage damage (five point scale) (Setaria faberi (SETFA) [3]) | AVEFA PRE percentage damage (five point scale) (Avena fatua (AVEFA) [4]) | ECHCG PRE percentage damage (five point scale) [5] | LOLPE PRE percentage damage (five point scale) (Lolium perenne (LOLPE) [6]) | ALOMY POST percentage damage (five point scale) [7] | AVEFA POST percentage damage (five point scale) (Avena fatua (AVEFA) [8]) | ECHCG POST percentage damage (five point scale) [9] | LOLPE POST percentage damage (five point scale) (Lolium perenne (LOLPE) [10])

CC#Cc1cc(C)c(C2C(=O)CC3(CCN(C(=O)C4CC4)CC3)CC2=O)c(C)c1 [Compound A8, 3-(cyclopropanecarbonyl)-9-(2,6-dimethyl-4-prop-1-ynyl-phenyl)-3-azaspiro[5.5]undecane-8,10-dione]
5 (5=80-100%): SETFA POST percentage damage (five point scale) (Setaria faberi (SETFA) [1]) | ALOMY PRE percentage damage (five point scale) [2] | SETFA PRE percentage damage (five point scale) (Setaria faberi (SETFA) [3]) | AVEFA PRE percentage damage (five point scale) (Avena fatua (AVEFA) [4]) | ECHCG PRE percentage damage (five point scale) [5] | LOLPE PRE percentage damage (five point scale) (Lolium perenne (LOLPE) [6]) | ALOMY POST percentage damage (five point scale) [7] | AVEFA POST percentage damage (five point scale) (Avena fatua (AVEFA) [8]) | ECHCG POST percentage damage (five point scale) [9] | LOLPE POST percentage damage (five point scale) (Lolium perenne (LOLPE) [10])

CC#Cc1cc(C)c(C2=C(OC(=O)OC)CC3(CCN(C(=O)C(C)O)CC3)CC2=O)c(C)c1 (centres unmarked) [Compound P31]
5 (5=80-100%): SETFA POST percentage damage (five point scale) (Setaria faberi (SETFA) [1]) | ALOMY PRE percentage damage (five point scale) [2] | SETFA PRE percentage damage (five point scale) (Setaria faberi (SETFA) [3]) | AVEFA PRE percentage damage (five point scale) (Avena fatua (AVEFA) [4]) | ECHCG PRE percentage damage (five point scale) [5] | LOLPE PRE percentage damage (five point scale) (Lolium perenne (LOLPE) [6]) | ALOMY POST percentage damage (five point scale) [7] | AVEFA POST percentage damage (five point scale) (Avena fatua (AVEFA) [8]) | LOLPE POST percentage damage (five point scale) (Lolium perenne (LOLPE) [10])

CC#Cc1cc(C)c(C2=C(OC(=O)OC)CC3(CCN(C(=O)C(C)OC)CC3)CC2=O)c(C)c1 (centres unmarked) [Compound P32]
5 (5=80-100%): SETFA POST percentage damage (five point scale) (Setaria faberi (SETFA) [1]) | ALOMY PRE percentage damage (five point scale) [2] | SETFA PRE percentage damage (five point scale) (Setaria faberi (SETFA) [3]) | AVEFA PRE percentage damage (five point scale) (Avena fatua (AVEFA) [4]) | ECHCG PRE percentage damage (five point scale) [5] | LOLPE PRE percentage damage (five point scale) (Lolium perenne (LOLPE) [6]) | ALOMY POST percentage damage (five point scale) [7] | AVEFA POST percentage damage (five point scale) (Avena fatua (AVEFA) [8]) | LOLPE POST percentage damage (five point scale) (Lolium perenne (LOLPE) [10])

CC#Cc1cc(C)c(C2=C(OC(=O)OC)CC3(CCN(C(=O)C4(C#N)CC4)CC3)CC2=O)c(C)c1 [Compound P33]
5 (5=80-100%): SETFA POST percentage damage (five point scale) (Setaria faberi (SETFA) [1]) | ALOMY PRE percentage damage (five point scale) [2] | SETFA PRE percentage damage (five point scale) (Setaria faberi (SETFA) [3]) | AVEFA PRE percentage damage (five point scale) (Avena fatua (AVEFA) [4]) | ECHCG PRE percentage damage (five point scale) [5] | LOLPE PRE percentage damage (five point scale) (Lolium perenne (LOLPE) [6]) | ALOMY POST percentage damage (five point scale) [7] | AVEFA POST percentage damage (five point scale) (Avena fatua (AVEFA) [8]) | LOLPE POST percentage damage (five point scale) (Lolium perenne (LOLPE) [10])

CC#Cc1cc(C)c(C2=C(OC(=O)OC)CC3(CCN(S(=O)(=O)c4ccccn4)CC3)CC2=O)c(C)c1 [Compound P34]
5 (5=80-100%): SETFA POST percentage damage (five point scale) (Setaria faberi (SETFA) [1]) | ALOMY PRE percentage damage (five point scale) [2] | SETFA PRE percentage damage (five point scale) (Setaria faberi (SETFA) [3]) | AVEFA PRE percentage damage (five point scale) (Avena fatua (AVEFA) [4]) | ECHCG PRE percentage damage (five point scale) [5] | LOLPE PRE percentage damage (five point scale) (Lolium perenne (LOLPE) [6]) | ALOMY POST percentage damage (five point scale) [7] | AVEFA POST percentage damage (five point scale) (Avena fatua (AVEFA) [8]) | LOLPE POST percentage damage (five point scale) (Lolium perenne (LOLPE) [10])
